Patent US7994209B2, “3-phenoxymethylpyrrolidine compounds” (Theravance, Inc., priority 2009, dated 2011)
pKi: −log10 of the molar value.

How the values were obtained:
hNET = hNET (Homo sapiens, UniProt P23975); assay: hNET membrane radioligand binding assay (3H-nisoxetine), Assay 1
hSERT = hSERT (Homo sapiens, UniProt P31645); assay: hSERT membrane radioligand binding assay (3H-citalopram), Assay 1; settings: SERT pKi, hSERT HEK-293 membranes, 1.0 nM 3H-citalopram; values given as lower bounds
hSERT, sequence (P31645 whole entry): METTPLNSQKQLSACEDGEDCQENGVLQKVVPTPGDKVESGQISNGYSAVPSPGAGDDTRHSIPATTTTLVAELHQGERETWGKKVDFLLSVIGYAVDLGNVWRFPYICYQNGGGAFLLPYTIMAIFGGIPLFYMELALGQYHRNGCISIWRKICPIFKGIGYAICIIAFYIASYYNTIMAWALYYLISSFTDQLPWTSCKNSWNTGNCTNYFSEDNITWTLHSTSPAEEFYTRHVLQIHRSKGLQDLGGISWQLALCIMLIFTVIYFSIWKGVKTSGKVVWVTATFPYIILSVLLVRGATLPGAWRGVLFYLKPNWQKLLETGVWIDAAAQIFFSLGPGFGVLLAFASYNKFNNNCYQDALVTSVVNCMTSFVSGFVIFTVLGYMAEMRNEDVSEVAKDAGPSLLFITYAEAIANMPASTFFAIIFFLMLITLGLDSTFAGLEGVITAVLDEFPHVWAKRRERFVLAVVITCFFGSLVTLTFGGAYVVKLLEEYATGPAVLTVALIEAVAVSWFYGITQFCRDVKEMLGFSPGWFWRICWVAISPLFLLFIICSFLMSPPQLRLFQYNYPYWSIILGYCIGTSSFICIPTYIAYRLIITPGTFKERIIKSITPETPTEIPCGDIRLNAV

hNET, sequence (P23975 whole entry): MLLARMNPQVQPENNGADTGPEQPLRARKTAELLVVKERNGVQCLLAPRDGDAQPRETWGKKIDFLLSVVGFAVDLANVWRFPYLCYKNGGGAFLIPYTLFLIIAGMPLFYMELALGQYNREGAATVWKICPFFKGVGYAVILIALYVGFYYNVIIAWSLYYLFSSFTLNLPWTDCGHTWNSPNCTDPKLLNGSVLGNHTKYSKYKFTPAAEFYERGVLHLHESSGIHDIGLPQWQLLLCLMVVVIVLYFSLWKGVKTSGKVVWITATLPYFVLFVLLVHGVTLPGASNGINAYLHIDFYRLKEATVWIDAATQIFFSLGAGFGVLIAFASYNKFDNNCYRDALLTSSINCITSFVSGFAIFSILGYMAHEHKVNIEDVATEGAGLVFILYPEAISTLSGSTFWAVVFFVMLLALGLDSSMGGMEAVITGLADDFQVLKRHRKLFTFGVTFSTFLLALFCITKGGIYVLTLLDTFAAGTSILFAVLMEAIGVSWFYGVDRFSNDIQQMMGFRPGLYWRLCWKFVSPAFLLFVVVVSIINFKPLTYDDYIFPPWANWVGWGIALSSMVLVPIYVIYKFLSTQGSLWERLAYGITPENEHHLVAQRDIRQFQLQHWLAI

CC[C@@H](Oc1ccc(Cl)cc1)[C@@H]1CCNC1 [Example 2-3, (R)-3-[(R)-1-(4-Chlorophenoxy)propyl]pyrrolidine]
pKi (hNET): ≥ 7.00 | pKi (hSERT): ≥ 8.00

CC[C@H](Oc1cccc(F)c1)[C@H]1CCNC1 [Example 2-9, (S)-3-[(S)-1-(3-Fluorophenoxy)propyl]pyrrolidine]
pKi (hNET): ≥ 8.00 | pKi (hSERT): ≥ 7.00

CC[C@H](Oc1ccc(F)cc1)[C@H]1CCNC1 [Example 2-12, (S)-3-[(S)-1-(4-Fluorophenoxy)propyl]pyrrolidine]
pKi (hNET): ≥ 7.00 | pKi (hSERT): ≥ 7.00

CC[C@H](Oc1cccc(C(F)(F)F)c1)[C@H]1CCNC1 [Example 2-16, (S)-3-[(S)-1-(3-Trifluoromethylphenoxy)propyl]pyrrolidine]
pKi (hNET): ≥ 7.00 | pKi (hSERT): ≥ 8.00

CC[C@H](Oc1ccc(C(F)(F)F)cc1)[C@H]1CCNC1 [Example 2-17, (S)-3-[(S)-1-(4-Trifluoromethylphenoxy)propyl]pyrrolidine]
pKi (hNET): ≥ 7.00 | pKi (hSERT): ≥ 8.00

CC[C@@H](Oc1c(F)cccc1Cl)[C@H]1CCNC1 [Example 2-26, (S)-3-[(R)-1-(2-Chloro-6-fluorophenoxy)propyl]pyrrolidine]
pKi (hNET): ≥ 8.00 | pKi (hSERT): ≥ 7.00

CC[C@H](Oc1cccc(Cl)c1Cl)[C@@H]1CCNC1 [Example 2-30, (R)-3-[(S)-1-(2,3-Dichlorophenoxy)propyl]pyrrolidine]
pKi (hNET): ≥ 7.00 | pKi (hSERT): ≥ 8.00

CC[C@@H](Oc1ccc(Cl)cc1Cl)[C@@H]1CCNC1 [Example 2-33, (R)-3-[(R)-1-(2,4-Dichlorophenoxy)propyl]pyrrolidine]
pKi (hNET): ≥ 7.00 | pKi (hSERT): ≥ 8.00

CC[C@@H](Oc1cc(F)cc(F)c1Cl)[C@H]1CCNC1 [Example 2-36, (S)-3-[(R)-1-(2-Chloro-3,5-difluorophenoxy)propyl]pyrrolidine]
pKi (hNET): ≥ 7.00 | pKi (hSERT): ≥ 7.00

CC[C@H](Oc1ccccc1F)[C@H]1CCNC1 [Example 2-46, (S)-3-[(S)-1-(2-Fluorophenoxy)propyl]pyrrolidine]
pKi (hNET): ≥ 8.00 | pKi (hSERT): ≥ 7.00

CC[C@H](Oc1c(F)cccc1F)[C@H]1CCNC1 [Example 2-49, (S)-3-[(S)-1-(2,6-Difluorophenoxy)propyl]pyrrolidine]
pKi (hNET): ≥ 8.00 | pKi (hSERT): ≥ 7.00

CC[C@H](Oc1ccc(F)c(F)c1F)[C@H]1CCNC1 [Example 2-50, (S)-3-[(S)-1-(2,3,4-Trifluorophenoxy)propyl]pyrrolidine]
pKi (hNET): ≥ 7.00 | pKi (hSERT): ≥ 8.00

CC[C@@H](Oc1c(F)ccc(Cl)c1F)[C@H]1CCNC1 [Example 2-53, (S)-3-[(R)-1-(3-Chloro-2,6-difluorophenoxy)propyl]pyrrolidine]
pKi (hNET): ≥ 8.00 | pKi (hSERT): ≥ 7.00

CC[C@@H](Oc1c(Cl)ccc(C)c1F)[C@H]1CCNC1 [Example 2-54, (S)-3-[(R)-1-(6-Chloro-2-fluoro-3-methylphenoxy)propyl]pyrrolidine]
pKi (hNET): ≥ 8.00 | pKi (hSERT): ≥ 7.00

CC[C@H](Oc1c(F)c(F)cc(F)c1F)[C@H]1CCNC1 [Example 2-56, (S)-3-[(S)-1-(2,3,5,6-Tetrafluorophenoxy)propyl]pyrrolidine]
pKi (hNET): ≥ 8.00 | pKi (hSERT): ≥ 7.00

CC[C@@H](Oc1ccc(Cl)cc1C)[C@H]1CCNC1 [Example 2-59, (S)-3-[(R)-1-(4-Chloro-2-methylphenoxy)propyl]pyrrolidine]
pKi (hNET): ≥ 7.00 | pKi (hSERT): ≥ 8.00

CC[C@H](Oc1ccc(Cl)cc1C)[C@@H]1CCNC1 [Example 2-61, (R)-3-[(S)-1-(4-Chloro-2-methylphenoxy)propyl]pyrrolidine]
pKi (hNET): ≥ 7.00 | pKi (hSERT): ≥ 8.00

CC[C@@H](Oc1ccccc1C)[C@H]1CCNC1 [Example 2-63, (S)-3-((R)-1-o-Tolyloxypropyl)pyrrolidine]
pKi (hNET): ≥ 7.00 | pKi (hSERT): ≥ 7.00

CC[C@H](Oc1ccccc1OC)[C@H]1CCNC1 [Example 2-67, (S)-3-[(S)-1-(2-Methoxyphenoxy)propyl]pyrrolidine]
pKi (hNET): ≥ 8.00 | pKi (hSERT): ≥ 7.00

CC[C@H](Oc1cccc(Cl)c1C(F)(F)F)[C@@H]1CCNC1 [Example 2-73, (R)-3-[(S)-1-(3-Chloro-2-trifluoromethylphenoxy)propyl]pyrrolidine]
pKi (hNET): ≥ 7.00 | pKi (hSERT): ≥ 8.00

CCC[C@H](Oc1ccc(Cl)cc1)[C@@H]1CCNC1 [Example 4-3, (R)-3-[(S)-1-(4-Chlorophenoxy)butyl]pyrrolidine]
pKi (hNET): ≥ 7.00 | pKi (hSERT): ≥ 8.00

CCC[C@@H](Oc1ccc(Cl)cc1)[C@@H]1CCNC1 [Example 4-4, (R)-3-[(R)-1-(4-Chlorophenoxy)butyl]pyrrolidine]
pKi (hNET): ≥ 7.00 | pKi (hSERT): ≥ 8.00

CCC[C@H](Oc1cc(Cl)cc(Cl)c1)[C@@H]1CCNC1 [Example 4-8, (R)-3-[(S)-1-(3,5-Dichlorophenoxy)butyl]pyrrolidine]
pKi (hNET): ≥ 7.00 | pKi (hSERT): ≥ 8.00

CCC[C@H](Oc1ccccc1Cl)[C@@H]1CCNC1 [Example 4-21, (R)-3-[(S)-1-(2-Chlorophenoxy)butyl]pyrrolidine]
pKi (hNET): ≥ 7.00 | pKi (hSERT): ≥ 7.00

CCC[C@@H](Oc1ccccc1Cl)[C@@H]1CCNC1 [Example 4-22, (R)-3-[(R)-1-(2-Chlorophenoxy)butyl]pyrrolidine]
pKi (hNET): ≥ 8.00 | pKi (hSERT): ≥ 7.00

CCC[C@H](Oc1cccc(Cl)c1Cl)[C@@H]1CCNC1 [Example 4-24, (R)-3-[(S)-1-(2,3-Dichlorophenoxy)butyl]pyrrolidine]
pKi (hNET): ≥ 7.00 | pKi (hSERT): ≥ 8.00

CCC[C@@H](Oc1ccc(Cl)cc1Cl)[C@H]1CCNC1 [Example 4-29, (S)-3-[(R)-1-(2,4-Dichlorophenoxy)butyl]pyrrolidine]
pKi (hNET): ≥ 7.00 | pKi (hSERT): ≥ 8.00

CCC[C@H](Oc1ccc(Cl)cc1Cl)[C@@H]1CCNC1 [Example 4-30, (R)-3-[(S)-1-(2,4-Dichlorophenoxy)butyl]pyrrolidine]
pKi (hNET): ≥ 7.00 | pKi (hSERT): ≥ 8.00

CCC[C@@H](Oc1ccc(Cl)cc1Cl)[C@@H]1CCNC1 [Example 4-31, (R)-3-[(R)-1-(2,4-Dichlorophenoxy)butyl]pyrrolidine]
pKi (hNET): ≥ 7.00 | pKi (hSERT): ≥ 8.00

CCC[C@@H](Oc1c(Cl)cccc1Cl)[C@H]1CCNC1 [Example 4-34, (S)-3-[(R)-1-(2,6-Dichlorophenoxy)butyl]pyrrolidine]
pKi (hNET): ≥ 8.00 | pKi (hSERT): ≥ 7.00

CCC[C@H](Oc1c(Cl)cccc1Cl)[C@@H]1CCNC1 [Example 4-35, (R)-3-[(S)-1-(2,6-Dichlorophenoxy)butyl]pyrrolidine]
pKi (hNET): ≥ 7.00 | pKi (hSERT): ≥ 7.00

CCC[C@@H](Oc1c(Cl)cccc1Cl)[C@@H]1CCNC1 [Example 4-36, (R)-3-[(R)-1-(2,6-Dichlorophenoxy)butyl]pyrrolidine]
pKi (hNET): ≥ 7.00 | pKi (hSERT): ≥ 7.00

CCC[C@H](Oc1ccc(C)cc1Cl)[C@@H]1CCNC1 [Example 4-38, (R)-3-[(S)-1-(2-Chloro-4-methylphenoxy)butyl]pyrrolidine]
pKi (hNET): ≥ 7.00 | pKi (hSERT): ≥ 8.00

CCC[C@H](Oc1cccc(Cl)c1C)[C@@H]1CCNC1 [Example 4-56, (R)-3-[(S)-1-(3-Chloro-2-methylphenoxy)butyl]pyrrolidine]
pKi (hNET): ≥ 7.00 | pKi (hSERT): ≥ 8.00

CCC[C@H](Oc1ccc(Cl)cc1C)[C@@H]1CCNC1 [Example 4-59, (R)-3-[(S)-1-(4-Chloro-2-methylphenoxy)butyl]pyrrolidine]
pKi (hNET): ≥ 8.00 | pKi (hSERT): ≥ 8.00
